A short description of data set [1]: DPPH radical scavenging assay. As to conditions: methanol, 517 nm; for DPPH/sca% 10 μM: compound 10 μM; for DPPH/sca% 50 μM: compound 50 μM; for DPPH/sca% 100 μM: compound 100 μM. On the procedure:
(§1) All new synthetic compounds 4a–o were tested for their potential inhibitory activity of AKR1B1 isolated from rat lenses. Besides, the inhibitory activity of aldehyde reductase (AKR1A1) isolated from rat kidneys was also investigated to evaluate the selectivity for AKR1B1. The enzyme AKR1A1 is closely related to AKR1B1, and plays an important role in physiological detoxification. […] Additionally, the antioxidant activity was assessed by using the model reaction with the stable free radical of 2,2-diphenyl-1-picrylhydrazyl (DPPH) according to the modified method, which was first employed by Blois[23].
The antioxidant activity of all synthesised compounds was determined with the DPPH model reaction and […] (Trolox) was employed as a positive control (Table 2).
To investigate the antiradical activity of target compounds in a homogeneous system, a method based on the scavenging of the stable free radical DPPH was employed. A 100 μL of methanolic solution of various compounds with different concentrations was added to 1 mL DPPH methanolic solution (2.5 × 10^-5 g/mL) and 1.9 ml methanol solution to give final concentrations of 0.1, 0.05, 0.01 mM for the tested compounds, respectively. After vortexing thoroughly and leaving for 30 min at room temperature, the optical density was measured at λ 517 nm using the Shimadzu UV-1800 spectrophotometer. The tested compounds and the reference (Trolox) were dissolved in methanol, and after 240 min (steady state), the percentage of DPPH radical scavenging was determined by the equation as shown below. The experiments were performed in triplicate.

Data set [2] addresses T1, AKR1A1 isolated from rat kidneys (Rattus norvegicus, UniProt P51635).
T1 construct: aldehyde reductase (AKR1A1) isolated from rat kidneys; from tissue; host or cells: rat kidneys
T1 sequence (P51635 1-325): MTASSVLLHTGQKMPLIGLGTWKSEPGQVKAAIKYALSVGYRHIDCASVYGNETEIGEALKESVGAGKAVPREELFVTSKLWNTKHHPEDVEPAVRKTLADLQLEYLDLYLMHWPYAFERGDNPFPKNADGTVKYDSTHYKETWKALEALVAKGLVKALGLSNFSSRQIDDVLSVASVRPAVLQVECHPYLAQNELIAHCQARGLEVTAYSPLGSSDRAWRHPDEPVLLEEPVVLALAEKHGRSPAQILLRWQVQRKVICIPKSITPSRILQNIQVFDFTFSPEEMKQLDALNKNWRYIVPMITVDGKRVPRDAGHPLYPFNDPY
The data set can be described thus: AKR1A1 (aldehyde reductase) inhibition, NADPH oxidation with sodium D-glucuronate as substrate. It counts as biochemical. As to conditions: rat kidney enzyme, pH 7.2, 37 °C. On the procedure: as §1
The AKR1A1 inhibition activity was performed in a reaction mixture containing 0.25 mL NADPH (0.12 mM), 0.1 mL enzyme extract, 0.25 mL sodium phosphate buffer (pH = 7.2, 0.1 M), 0.15 mL deionized water, and 0.25 mL sodium D-glucuronate (20 mM) as substrate in a final volume of 1 mL. Before adding to sodium D-glucuronate, the reaction mixture was incubated at 37 °C for 10 min, and then the substrate was added to start the reaction, which was monitored for 4 min.
(§2) The inhibitory activity of the newly synthesized compounds against AKR1B1 and AKR1A1 was assayed by adding 5 μL of the inhibitor solution to the reaction mixture described above. All compounds were dissolved in dimethyl sulfoxide (DMSO) and diluted with deionized H2O. To correct for the nonenzymatic oxidation of NADPH, the rate of NADPH oxidation in the presence of all the reaction mixture components except the substrate was subtracted from each experimental rate. The inhibitory effect of the synthetic compounds was routinely estimated at 10^-4 M (the concentration is referenced to that of the compound in the reaction mixture).

For data set [3], the target named is T2, AKR1B1 isolated from rat lenses (Rattus norvegicus, UniProt P07943).
T2 construct: AKR1B1 isolated from rat lenses; from tissue; host or cells: rat lenses
Description: AKR1B1 (aldose reductase) inhibition, NADPH oxidation with D,L-glyceraldehyde as substrate. It counts as biochemical. As to conditions: rat lens enzyme, pH 6.2, 30 °C. On the procedure:
Besides, the inhibitory activity of aldehyde reductase (AKR1A1) isolated from rat kidneys was also investigated to evaluate the selectivity for AKR1B1. The enzyme AKR1A1 is closely related to AKR1B1, and plays an important role in physiological detoxification. […] Additionally, the antioxidant activity was assessed by using the model reaction with the stable free radical of 2,2-diphenyl-1-picrylhydrazyl (DPPH) according to the modified method, which was first employed by Blois[23].
The AKR1B1 inhibition activity was performed in a reaction mixture containing 0.25 mL NADPH (0.10 mM), 0.25 mL sodium phosphate buffer (pH = 6.2, 0.1 M), 0.1 mL enzyme extract, 0.15 mL deionized water, and 0.25 mL D,L-glyceraldehyde (10 mM) as substrate in a final volume of 1 mL. Before adding to D,L-glyceraldehyde, the reaction mixture was incubated at 30 °C for 10 min, and then the substrate was added to start the reaction, which was monitored for 4 min.
as §2

Where “and” joins values, the source holds several entries; their conditions need not be identical. Equal entries are not always repeated.

Regarding `O=C(O)Cn1c(=O)c(Oc2cc(O)cc(O)c2)nc2cc(Cl)cnc21` [4k, 2-(7-chloro-2-(3,5-dihydroxyphenoxy)-3-oxopyrido[3,2-b]pyrazin-4(3H)-yl)acetic acid], the melting point (in general, the temperature, or range, at which the solid turns liquid) fell in the range of 232 to 236 °C. Besides, in data set [1], the “DPPH/sca% 10 μM” value is recorded as 49.1 ± 2.4%, the “DPPH/sca% 50 μM” value worked out at 76.4 ± 0.9% and the “DPPH/sca% 100 μM” value is 94.8 ± 1.1%. Besides, half-maximal inhibition in data set [2] (IC50) was put at 18.4 ± 1.34 µM. Besides, the IC50 (commonly the point on the concentration scale where inhibition reaches its midpoint) in data set [3] worked out at 0.023 ± 0.003 µM.

As to `COc1c(O)cc(Oc2nc3cccnc3n(CC(=O)O)c2=O)cc1O` [4n, 2-(2-(3,5-dihydroxy-4-methoxyphenoxy)-3-oxopyrido[3,2-b]pyrazin-4(3H)-yl)acetic acid], the melting point was 235 to 241 °C. For the same compound, in data set [1], the “DPPH/sca% 50 μM” value amounted to 40.8 ± 1.6% and the “DPPH/sca% 100 μM” value is 65.7 ± 0.9%. Half-maximal inhibition in data set [2] (IC50) was put at 25.8 ± 1.65 µM. Besides, the IC50 in data set [3] was found to be 2.36 ± 0.184 µM.

`O=C(O)Cn1c(=O)c(Oc2cc(O)c(O)c(O)c2)nc2cccnc21` [4o, 2-(3-oxo-2-(3,4,5-trihydroxyphenoxy)pyrido[3,2-b]pyrazin-4(3H)-yl)acetic acid] returned a melting point of 241 to 246 °C. Further, in data set [1], the “DPPH/sca% 10 μM” value is 23.4 ± 2.0%, the “DPPH/sca% 50 μM” value is 65.2 ± 1.9% and the “DPPH/sca% 100 μM” value was found to be 88.5 ± 1.4%. Also, the midpoint of inhibition in data set [2], the IC50, lay at 21.7 ± 1.47 µM. In addition, the IC50 in data set [3] is 0.859 ± 0.058 µM.

`COc1cc(Oc2nc3cccnc3n(CC(=O)O)c2=O)cc(O)c1OC` [4m, 2-(2-(3-hydroxy-4,5-dimethoxyphenoxy)-3-oxopyrido[3,2-b]pyrazin-4(3H)-yl)acetic acid] came in with a melting point of 237 to 244 °C. Also, in data set [1], the “DPPH/sca% 50 μM” value came out at 35.9 ± 1.1% and the “DPPH/sca% 100 μM” value is recorded as 56.9 ± 1.8%. In data set [2], it took 31.6 ± 3.06 µM to reach half-maximal inhibition (IC50). In data set [3], this compound returned an IC50 of 4.53 ± 0.258 µM.

Compound `COc1cc(OC)cc(Oc2nc3cccnc3n(CC(=O)O)c2=O)c1` [4d, 2-(2-(3,5-dimethoxyphenoxy)-3-oxopyrido[3,2-b]pyrazin-4(3H)-yl)acetic acid] returned a melting point of 241 to 247 °C. Moreover, in data set [1], the “DPPH/sca% 100 μM” value worked out at 25.9 ± 1.3%. For the same compound, in data set [2], the IC50 came out at 21.5 ± 1.81 µM. In data set [3], this compound registered an IC50 of 4.3 ± 0.288 µM.

Compound `O=C(O)Cn1c(=O)c(Oc2ccccc2)nc2cccnc21` [4a, 2-(3-oxo-2-phenoxypyrido[3,2-b]pyrazin-4(3H)-yl)acetic acid] returned a melting point of 239 to 244 °C. Moreover, the “DPPH/sca% 100 μM” value in data set [1] turned out to be 6.9 ± 1.2%. This compound came in with an IC50 in data set [2] of 26.9 ± 1.45 µM. The compound also displayed an IC50 in data set [3] of 8.57 ± 0.523 µM.

`COc1cc(O)cc(Oc2nc3cccnc3n(CC(=O)O)c2=O)c1` [4i, 2-(2-(3-hydroxy-5-methoxyphenoxy)-3-oxopyrido[3,2-b]pyrazin-4(3H)-yl)acetic acid] displayed a melting point of 229 to 232 °C. Besides, in data set [1], the “DPPH/sca% 50 μM” value is 45.2 ± 1.8% and the “DPPH/sca% 100 μM” value is recorded as 78.4 ± 0.7%. Besides, the IC50 in data set [2] was 15.1 ± 0.924 µM. In data set [3], half-maximal inhibition (IC50) was put at 2.85 ± 0.031 µM.

As to `O=C(O)Cn1c(=O)c(Oc2cc(O)cc(O)c2)nc2cccnc21` [4j, 2-(2-(3,5-dihydroxyphenoxy)-3-oxopyrido[3,2-b]pyrazin-4(3H)-yl)acetic acid], the melting point was 231 to 237 °C. For the same compound, in data set [1], the “DPPH/sca% 10 μM” value is reported as 45.3 ± 1.9%, the “DPPH/sca% 50 μM” value worked out at 77.2 ± 1.5% and the “DPPH/sca% 100 μM” value came to 95.0 ± 0.9%. The IC50 in data set [2] turned out to be 20.8 ± 1.5 µM. The compound also displayed an IC50 in data set [3] of 0.087 ± 0.007 µM.

Take `Cc1c(C)c2c(c(C)c1O)CCC(C)(C(=O)O)O2` (centres unmarked) [Trolox, […], reference compound]: in data set [1], the “DPPH/sca% 10 μM” value is 85.9 ± 0.6%, the “DPPH/sca% 50 μM” value stood at 89.8 ± 1.0% and the “DPPH/sca% 100 μM” value is listed as 96.7 ± 0.8%.

Take `COc1ccc(Oc2nc3cccnc3n(CC(=O)O)c2=O)cc1` [4b, 2-(2-(4-methoxyphenoxy)-3-oxopyrido[3,2-b]pyrazin-4(3H)-yl)acetic acid]: the melting point is 234 to 242 °C. Besides, in data set [1], the “DPPH/sca% 100 μM” value was 18.9 ± 0.8%. For the same compound, 19.8 ± 1.32 µM corresponded to half-maximal inhibition in data set [2] (IC50). Also, the midpoint of inhibition in data set [3], the IC50, lay at 2.68 ± 0.199 µM.

As to `COc1ccc(Oc2nc3cccnc3n(CC(=O)O)c2=O)cc1O` [4g, 2-(2-(3-hydroxy-4-methoxyphenoxy)-3-oxopyrido[3,2-b]pyrazin-4(3H)-yl)acetic acid], the melting point lay within 232 to 236 °C. In data set [1], the “DPPH/sca% 50 μM” value was 21.5 ± 1.2% and the “DPPH/sca% 100 μM” value came to 54.8 ± 1.6%. The same compound returned an IC50 in data set [2] of 19.3 ± 1.81 µM. The same compound displayed an IC50 in data set [3] of 2.5 ± 0.203 µM.

For the compound `CC(/C=C1\SC(=S)N(CC(=O)O)C1=O)=C\c1ccccc1` [Epalrestat, reference compound], half-maximal inhibition in data set [2] (IC50) was put at 55.7 ± 3.29 µM.

With `O=C(O)Cn1c(=O)c(Oc2cc(O)cc(O)c2)nc2cc(Br)cnc21` [4l, 2-(7-bromo-2-(3,5-dihydroxyphenoxy)-3-oxopyrido[3,2-b]pyrazin-4(3H)-yl)acetic acid], the melting point was in the range of 233 to 235 °C. In addition, in data set [1], the “DPPH/sca% 10 μM” value was 46.8% and 46.8 ± 1.5%; the “DPPH/sca% 50 μM” value is 80.6% and 80.6 ± 2.0%; the “DPPH/sca% 100 μM” value was 95.3% and 95.3 ± 1.2%. In data set [2], this compound registered an IC50 of 19.8 ± 1.41 µM. Besides, inhibition in data set [3] was half-maximal at 0.056 ± 0.005 µM (IC50).

With `COc1cc(Oc2nc3cccnc3n(CC(=O)O)c2=O)cc(OC)c1OC` [4e, 2-(3-oxo-2-(3,4,5-trimethoxyphenoxy)pyrido[3,2-b]pyrazin-4(3H)-yl)acetic acid], the melting point lay in the range of 235 to 243 °C. Also, the “DPPH/sca% 100 μM” value in data set [1] is reported as 17.8 ± 0.9%. Besides, in data set [2], the IC50 was determined as 20.9 ± 1.21 µM. Inhibition in data set [3] was half-maximal at 7.57 ± 0.431 µM (IC50).

The compound `O=C(O)Cn1c(=O)c(Oc2ccc(O)cc2)nc2cccnc21` [4f, 2-(2-(4-hydroxyphenoxy)-3-oxopyrido[3,2-b]pyrazin-4(3H)-yl)acetic acid] gave a melting point of 231 to 239 °C. In data set [1], the “DPPH/sca% 100 μM” value is 37.7 ± 1.0%. Moreover, the IC50 in data set [2] came to 15.9 ± 0.781 µM. Further, in data set [3], the concentration for half-maximal inhibition (IC50) worked out at 0.121 ± 0.01 µM.

In the case of `O=C(O)Cn1c(=O)c(Oc2ccc(O)c(O)c2)nc2cccnc21` [4h, 2-(2-(3,4-dihydroxyphenoxy)-3-oxopyrido[3,2-b]pyrazin-4(3H)-yl)acetic acid], the melting point lay in the range of 231 to 236 °C. Besides, in data set [1], the “DPPH/sca% 50 μM” value was determined as 44.1 ± 2.3% and the “DPPH/sca% 100 μM” value is given as 74.6 ± 1.4%. In data set [2], this compound displayed an IC50 of 16.9 ± 0.692 µM. In data set [3], the IC50 was determined as 0.305 ± 0.022 µM.

In the case of `COc1ccc(Oc2nc3cccnc3n(CC(=O)O)c2=O)cc1OC` [4c, 2-(2-(3,4-dimethoxyphenoxy)-3-oxopyrido[3,2-b]pyrazin-4(3H)-yl)acetic acid], the melting point fell in the range of 241 to 251 °C. For the same compound, in data set [1], the “DPPH/sca% 100 μM” value was 21.2 ± 1.5%. This compound also registered a half-inhibitory concentration (IC50) in data set [2] of 17.6 ± 1.02 µM. Besides, in data set [3], half-maximal inhibition (IC50) was put at 5.68 ± 0.608 µM.

The values above are taken from paper PMC6711126, “Novel 2-phenoxypyrido[3,2-b]pyrazin-3(4H)-one derivatives as potent and selective aldose reductase inhibitors with antioxidant activity” (Journal of Enzyme Inhibition and Medicinal Chemistry, 2019).
